We go through one molecule from patent US20230219951A1, “PYRIDINE-PYRIMIDINE DERIVATIVE, PREPARATION METHOD THEREFOR AND PHARMACEUTICAL USE THEREOF” (Jiangsu Hengrui Pharmaceuticals Co., Ltd., priority 2020, published 2023).

One may read the IC50 as the concentration at which inhibition is half-maximal.

The structures appear in SMILES notation. A value given as a limit tells only on which side of the number the result lay.

Assay [1] relates to ERK phosphorylation of H358 cells. The assay is described as follows: Inhibition of ERK phosphorylation of H358 cells (HTRF pERK/total ERK). The class given is cell-based. Particulars: Homo sapiens, NCI-H358, 1 h incubation, pERK/total ERK ratio. A digest of the protocol: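 H358 (KRAS G12C) cells were treated 1 h at 37°C with compound, 9 points by 5-fold dilution from 10 μM (final), 0.1% DMSO blank. Lysates were probed by HTRF with phospho-ERK1/2 and total-ERK1/2 antibodies overnight at room temperature, and IC50 was fitted from the pERK/total ERK ratio.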
On the technique in general: In TR-FRET formats the signal depends on donor and acceptor labels being close together.

The target of the next assay is T1, CYP2C19 (Homo sapiens, UniProt P33261).
T1 construct: tissue Corning Gentest 452161; host or cells: human liver microsomes
T1 sequence (P33261 whole entry): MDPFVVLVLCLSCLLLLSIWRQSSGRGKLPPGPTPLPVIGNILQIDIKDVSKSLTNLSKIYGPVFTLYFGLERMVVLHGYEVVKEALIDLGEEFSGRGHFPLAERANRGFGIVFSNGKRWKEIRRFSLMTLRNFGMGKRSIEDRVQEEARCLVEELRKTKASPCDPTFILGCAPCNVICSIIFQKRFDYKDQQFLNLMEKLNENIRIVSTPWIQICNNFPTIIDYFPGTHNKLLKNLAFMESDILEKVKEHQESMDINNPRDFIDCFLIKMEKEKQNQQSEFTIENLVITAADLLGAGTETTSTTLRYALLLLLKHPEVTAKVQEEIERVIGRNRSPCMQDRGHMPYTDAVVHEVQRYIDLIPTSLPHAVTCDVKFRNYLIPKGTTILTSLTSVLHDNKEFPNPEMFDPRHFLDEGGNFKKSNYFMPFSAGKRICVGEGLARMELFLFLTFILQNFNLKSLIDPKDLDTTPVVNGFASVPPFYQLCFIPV
The assay is described as follows: Human liver microsome CYP450 inhibition, CYP2C19 (S)-mephenytoin 4'-hydroxylation. In kind it is in vitro ADME. Particulars: human liver microsomes, (S)-mephenytoin probe substrate. The method, then: The inhibition effect of the compounds of the present disclosure on the human liver microsome CYP450 enzyme was determined by the following method:
An appropriate amount of human liver microsome stock solution (20 mg/mL) was diluted to obtain a 0.25 mg/mL microsome solution with 7.5 mM MgC12 solution for later use (prepared right before use).
b. An appropriate amount of the stock solution was precisely pipetted, and diluted into series solution I at the concentrations of 10 mM, 3 mM, 1 mM, 0.3 mM, 0.03 mM and 0.003 mM with an appropriate amount of DMSO solution. An appropriate amount of the above series solution I was precisely pipetted, and diluted to obtain series solution II at the concentrations of 3 mM, 1 mM, 0.3 mM, 0.1 mM, 0.03 mM, 0.003 mM and 0.0003 mM with an appropriate amount of acetonitrile. An appropriate amount of the above series solution II was precisely pipetted, and diluted with PBS to obtain a working solution at the concentrations of 150 μM, 50 μM, 15 μM, 5μM, 1.5 μM, 0.15 μM and 0.015 μM for later use.
a. […]
The values were calculated by Graphpad Prism to obtain the IC50 values for the inhibition of drugs on CYP2C19 (S)-mephenytoin 4′-hydroxylation and CYP3A4M midazolam 1-hydroxylation metabolism in human liver microsomes, as shown in Table 6.

As to `Cc1nc(N[C@H](C)c2cccc(C(F)F)c2F)c2cc([C@]3(O)CC[C@@H](O)CC3)c(=O)[nH]c2n1` [Example 18-p1, 4-(((R)-1-(3-(difluoromethyl)-2-fluorophenyl)ethyl)amino)-6-((1s,4S)-1,4-dihydroxycyclohexyl)-2-methylpyrido[2,3-d]pyrimidin-7(8H)-one], the IC50 in assay [1] was 51 nM; against CYP2C19 it was over 30 µM.
